Literature values as cited in patent US20150275302A1, “DETERMINATION OF SINGLE NUCLEOTIDE POLYMORPHISMS USEFUL TO PREDICT RESPONSE FOR RASAGILINE” (TEVA PHARMACEUTICAL INDUSTRIES, LTD., priority 2014, published 2015).

Conditions: in vivo

absolute bioavailability: about 36%
Compound: C#CCN[C@@H]1CCc2ccccc21 [rasagiline, R(+)-N-propargyl-l-aminoindan]
